Test results as given in patent US10315999B2, “Processes for the preparation of pesticidal compounds” (Dow AgroSciences LLC, priority 2013, dated 2019).
Where a name gives a salt, the structure may show the parent alone. Read-outs that look alike come from different tables or passages of the source.

How the values were obtained:
[1] = tested on: Green Peach Aphid (Myzus persicae) (MYZUPE); assay: Bioassay on Green Peach Aphid (GPA), cabbage seedling foliar spray; type: in vivo; settings: 72 h, read-out: MYZUPE rating (% Control of Mortality, Abbott corrected)
Description: Several molecules disclosed herein were tested against GPA using procedures described below.
Cabbage seedling grown in 3-in pots, with 2-3 small (3-5 cm) true leaves, were used as test substrate. The seedlings were infested with […] (wingless adult and nymph stages) one day prior to chemical application. Four pots with individual seedlings were used for each treatment. Test compounds (2 mg) were dissolved in 2 mL of acetone/MeOH (1:1) solvent, forming stock solutions of 1000 ppm test compound. The stock solutions were diluted 5× with 0.025% Tween 20 in water to obtain the solution at 200 ppm test compound. A hand-held aspirator-type sprayer was used for spraying a solution to both sides of the cabbage leaves until runoff. Reference plants (solvent check) were sprayed with the diluent only containing 20% by volume acetone/MeOH (1:1) solvent. Treated plants were held in a holding room for three days at approximately 25° C. and ambient relative humidity (RH) prior to grading. Evaluation was conducted by counting the number of live aphids per plant under a microscope. Percent Control was measured by using Abbott's correction formula (W. S. Abbott, “A Method of Computing the Effectiveness of an Insecticide” J. Econ. Entomol 18 (1925), pp. 265-267) as follows. Corrected % Control=100*(X−Y)/X • where • X=No. of live aphids on solvent check plants and • Y=No. of live aphids on treated plants
The results are indicated in the table entitled “Table 1: GPA (MYZUPE) and sweetpotato whitefly-crawler (BEMITA) Rating Table”.

[2] = tested on: Sweetpotato Whitefly Crawler (Bemisia tabaci) (BEMITA); assay: Bioassay on Sweetpotato Whitefly Crawler, cotton plant foliar spray; type: in vivo; settings: read-out: BEMITA rating (% Control of Mortality, Abbott corrected)
Description: Cotton plants grown in 3-inch pots, with 1 small (3-5 cm) true leaf, were used at test substrate. The plants were placed in a room with whitely adults. Adults were allowed to deposit eggs for 2-3 days. After a 2-3 day egg-laying period, plants were taken from the adult whitefly room. Adults were blown off leaves using a hand-held Devilbliss sprayer (23 psi). Plants with egg infestation (100-300 eggs per plant) were placed in a holding room for 5-6 days at 82° F. and 50% RH for egg hatch and crawler stage to develop. Four cotton plants were used for each treatment. Compounds (2 mg) were dissolved in 1 mL of acetone solvent, forming stock solutions of 2000 ppm. The stock solutions were diluted 10× with 0.025% Tween 20 in water to obtain a test solution at 200 ppm. A hand-held Devilbliss sprayer was used for spraying a solution to both sides of cotton leaf until runoff. Reference plants (solvent check) were sprayed with the diluent only. Treated plants were held in a holding room for 8-9 days at approximately 82° F. and 50% RH prior to grading. Evaluation was conducted by counting the number of live nymphs per plant under a microscope.

[3] = 200 ppm spray on cabbage seedlings, live aphids counted after three days
[4] = 200 ppm spray on cotton plants, live nymphs counted after 8-9 days

Row | SMILES | mortality at 200 ppm [1] [%] | mortality at 200 ppm [2] [%] | mortality at 200 ppm [1, 3] [%] | mortality at 200 ppm [2, 4] [%]
1 | Nc1c[nH]nc1Cl [Compound 1a, 3-Chloro-1H-pyrazol-4-amine hydrochloride] | 0 to 80 | 0 to 80 |  | 
2 | CC(=O)Nc1c[nH]nc1Cl [Compound 1b, N-(3-Chloro-1H-pyrazol-4-yl)acetamide] |  |  | 0 to 80 | 0 to 80
3 | CC(=O)Nc1cn(-c2cccnc2)nc1Cl [Compound 1c, N-(3-Chloro-1-(pyridin-3-yl)-1H-pyrazol-4-yl)acetamide] |  |  | 0 to 80 | 0 to 80
4 | CCNc1cn(-c2cccnc2)nc1Cl [Compound 1d, 3-Chloro-N-ethyl-1-(pyridin-3-yl)-1H-pyrazol-amine] |  |  | 0 to 80 | 0 to 80
5 | CCN(C(=O)CCSCCC(F)(F)F)c1cn(-c2cccnc2)nc1Cl [Compound 5.1, N-(3-Chloro-1-(pyridin-3-yl)-1H-pyrazol-4-yl)-N-ethyl-3-((3,3,3-trifluoropropyl)thio)propanamide] |  |  | 80 to 100 | 80 to 100
6 | CCN(C(=O)CC[S+]([O-])CCC(F)(F)F)c1cn(-c2cccnc2)nc1Cl (stereo not drawn) [Compound 8.1, N-(3-Chloro-1-(pyridin-3-yl)-1H-pyrazol-4-yl)-N-ethyl-3-((3,3,3-trifluoropropyl)sulfoxo)propanamide] |  |  | 80 to 100 | 80 to 100
